Measurements: ChEMBL document CHEMBL1123916, “Facile synthesis of 2-[(3-aminopropyl)thio]adenosine 5'-diphosphate: a key intermediate for the synthesis of molecular probes of adenosine 5'-diphosphate function” (J Med Chem, 1987)
Activity calls are given as the source filed them.

Experiments:
Assay type in all cases: functional, organism-based
Homo sapiens [1] = species: Homo sapiens; assay: Reversible aggregation effect at low concentration; Active
Homo sapiens [2] = species: Homo sapiens; assay: Agonistic activity against platelet aggregation; Effective agonist; settings: filed as agonist
Homo sapiens [3] = species: Homo sapiens; assay: Biphasic response at low concentration; Active

Measured: Activity

Nc1ncnc2c1ncn2[C@@H]1O[C@H](COP(=O)(O)OP(=O)(O)O)[C@@H](O)[C@H]1O
active: Homo sapiens [1] | Homo sapiens [2] Agonist | Homo sapiens [3]
